Reference: patent US20140155580A1, “TRANSGENIC AVES PRODUCING HUMAN POLYCLONAL ANTIBODIES” (Synageva BioPharma Corp., priority 2003, published 2014)

Tested on: chicken embryonic stem cells
Test: Titration kill curve: cES cells in culture exposed to puromycin or neomycin
Format: cell-based
Parameters: key to Morphology of cES cells: ES: ES cells are present.; diff: ES cells are differentiated.; gone: no morphologically recognizable cells are present
Experimental: In a preferred embodiment, the concentration of puromycin required for selecting transfected cells is calculated as a titration kill curve. Titration kill curves for chicken embryonic stem cells are established by exposing cells in culture to puromycin concentrations varying from 0.0 to 1.0 μg/ml for 10 days (Table 7) and neomycin concentrations varying from 0.0 to 200 μg/ml (Table 8). The medium is changed every 2 days and fresh puromycin or neomycin is added. […] Puromycin concentrations of 0.3-1.0 μg/ml are used for selection of the transfected cultures. Neomycin concentrations over 40 μg/ml eliminated all cES cells within 7 days (Table 8).

## neomycin
Neomycin 10 μg/ml, day 1 under selection
  Morphology of cES cells: ES
Neomycin 10 μg/ml, day 2 under selection
  Morphology of cES cells: ES
Neomycin 10 μg/ml, day 3 under selection
  Morphology of cES cells: ES
Neomycin 10 μg/ml, day 4 under selection
  Morphology of cES cells: ES
Neomycin 10 μg/ml, day 5 under selection
  Morphology of cES cells: ES
Neomycin 10 μg/ml, day 6 under selection
  Morphology of cES cells: ES
Neomycin 10 μg/ml, day 7 under selection
  Morphology of cES cells: ES
Neomycin 10 μg/ml, day 8 under selection
  Morphology of cES cells: ES
Neomycin 10 μg/ml, day 9 under selection
  Morphology of cES cells: ES
Neomycin 10 μg/ml, day 10 under selection
  Morphology of cES cells: ES
Neomycin 20 μg/ml, day 1 under selection
  Morphology of cES cells: ES
Neomycin 20 μg/ml, day 2 under selection
  Morphology of cES cells: ES
Neomycin 20 μg/ml, day 3 under selection
  Morphology of cES cells: ES
Neomycin 20 μg/ml, day 4 under selection
  Morphology of cES cells: ES
Neomycin 20 μg/ml, day 5 under selection
  Morphology of cES cells: ES
Neomycin 20 μg/ml, day 6 under selection
  Morphology of cES cells: ES
Neomycin 20 μg/ml, day 7 under selection
  Morphology of cES cells: ES
Neomycin 20 μg/ml, day 8 under selection
  Morphology of cES cells: ES
Neomycin 20 μg/ml, day 9 under selection
  Morphology of cES cells: ES
Neomycin 20 μg/ml, day 10 under selection
  Morphology of cES cells: ES
Neomycin 30 μg/ml, day 1 under selection
  Morphology of cES cells: ES
Neomycin 30 μg/ml, day 2 under selection
  Morphology of cES cells: ES
Neomycin 30 μg/ml, day 3 under selection
  Morphology of cES cells: ES
Neomycin 30 μg/ml, day 4 under selection
  Morphology of cES cells: ES
Neomycin 30 μg/ml, day 5 under selection
  Morphology of cES cells: ES
Neomycin 30 μg/ml, day 6 under selection
  Morphology of cES cells: ES
Neomycin 30 μg/ml, day 9 under selection
  Morphology of cES cells: Diff
Neomycin 40 μg/ml, day 1 under selection
  Morphology of cES cells: ES
Neomycin 40 μg/ml, day 2 under selection
  Morphology of cES cells: ES
Neomycin 40 μg/ml, day 3 under selection
  Morphology of cES cells: ES
Neomycin 40 μg/ml, day 4 under selection
  Morphology of cES cells: ES
Neomycin 40 μg/ml, day 7 under selection
  Morphology of cES cells: dead
Neomycin 40 μg/ml, day 8 under selection
  Morphology of cES cells: gone
Neomycin 40 μg/ml, day 9 under selection
  Morphology of cES cells: gone
Neomycin 40 μg/ml, day 10 under selection
  Morphology of cES cells: gone
Neomycin 50 μg/ml, day 1 under selection
  Morphology of cES cells: ES
Neomycin 50 μg/ml, day 2 under selection
  Morphology of cES cells: ES
Neomycin 50 μg/ml, day 3 under selection
  Morphology of cES cells: ES
Neomycin 50 μg/ml, day 8 under selection
  Morphology of cES cells: gone
Neomycin 50 μg/ml, day 9 under selection
  Morphology of cES cells: gone
Neomycin 50 μg/ml, day 10 under selection
  Morphology of cES cells: gone
Neomycin 60 μg/ml, day 1 under selection
  Morphology of cES cells: ES
Neomycin 60 μg/ml, day 2 under selection
  Morphology of cES cells: ES
Neomycin 60 μg/ml, day 3 under selection
  Morphology of cES cells: ES
Neomycin 60 μg/ml, day 4 under selection
  Morphology of cES cells: gone
Neomycin 60 μg/ml, day 5 under selection
  Morphology of cES cells: gone
Neomycin 60 μg/ml, day 6 under selection
  Morphology of cES cells: gone
Neomycin 60 μg/ml, day 7 under selection
  Morphology of cES cells: gone
Neomycin 60 μg/ml, day 8 under selection
  Morphology of cES cells: gone
Neomycin 60 μg/ml, day 9 under selection
  Morphology of cES cells: gone
Neomycin 60 μg/ml, day 10 under selection
  Morphology of cES cells: gone
Neomycin 100 μg/ml, day 2 under selection
  Morphology of cES cells: Diff
Neomycin 100 μg/ml, day 3 under selection
  Morphology of cES cells: dead
Neomycin 100 μg/ml, day 4 under selection
  Morphology of cES cells: gone
Neomycin 100 μg/ml, day 5 under selection
  Morphology of cES cells: gone
Neomycin 100 μg/ml, day 6 under selection
  Morphology of cES cells: gone
Neomycin 100 μg/ml, day 7 under selection
  Morphology of cES cells: gone
Neomycin 100 μg/ml, day 8 under selection
  Morphology of cES cells: gone
Neomycin 100 μg/ml, day 9 under selection
  Morphology of cES cells: gone
Neomycin 100 μg/ml, day 10 under selection
  Morphology of cES cells: gone
Neomycin 150 μg/ml, day 1 under selection
  Morphology of cES cells: dead
Neomycin 150 μg/ml, day 2 under selection
  Morphology of cES cells: dead
Neomycin 150 μg/ml, day 3 under selection
  Morphology of cES cells: gone
Neomycin 150 μg/ml, day 4 under selection
  Morphology of cES cells: gone
Neomycin 150 μg/ml, day 5 under selection
  Morphology of cES cells: gone
Neomycin 150 μg/ml, day 6 under selection
  Morphology of cES cells: gone
Neomycin 150 μg/ml, day 7 under selection
  Morphology of cES cells: gone
Neomycin 150 μg/ml, day 8 under selection
  Morphology of cES cells: gone
Neomycin 150 μg/ml, day 9 under selection
  Morphology of cES cells: gone
Neomycin 150 μg/ml, day 10 under selection
  Morphology of cES cells: gone
Neomycin 200 μg/ml, day 1 under selection
  Morphology of cES cells: dead
Neomycin 200 μg/ml, day 2 under selection
  Morphology of cES cells: gone
Neomycin 200 μg/ml, day 3 under selection
  Morphology of cES cells: gone
Neomycin 200 μg/ml, day 4 under selection
  Morphology of cES cells: gone
Neomycin 200 μg/ml, day 5 under selection
  Morphology of cES cells: gone
Neomycin 200 μg/ml, day 6 under selection
  Morphology of cES cells: gone
Neomycin 200 μg/ml, day 7 under selection
  Morphology of cES cells: gone
Neomycin 200 μg/ml, day 8 under selection
  Morphology of cES cells: gone
Neomycin 200 μg/ml, day 9 under selection
  Morphology of cES cells: gone
Neomycin 200 μg/ml, day 10 under selection
  Morphology of cES cells: gone
Neomycin concentrations over 40 μg/ml
  Time in which all cES cells were eliminated: ≤ 7 days
